# Data: patent US11959095B2, “Compositions, cell constructs, and methods of making and using the same” (Wake Forest University Health Sciences, priority 2016, dated 2024)
# Key:
# [1] = system: liver organoids; assay: APAP toxicity testing and N-acetyl-L-cysteine intervention in liver organoids; assay type: cell-based, human; conditions: 10 mM APAP plus 20 mM NAC
# [2] = system: cells on PEGSSDA hydrogel; assay: Proliferation on PEGSSDA hydrogel softened with NAC, MTS assay; assay type: cell-based; conditions: gels softened on day 4 with NAC 100 mmol for 60 minutes, vs control gels
# Method: (§1) In a 96 well plate, we placed 10,000 cells on two sets of nine wells of 50 ul PEGSSDA hydrogel and the wells were filled with DMEM high glucose and cultured for a week. On day 4, one set of gels were softened using NAC 100 mmol for 60 minutes. Now proliferation of cells was compared between control gels and softened gels using MTS assays on day 7.
# [3] = system: cells on S3 stiff hydrogel; assay: Proliferation on S3 stiff hydrogel softened with collagenase, MTS assay; assay type: cell-based; conditions: gels softened on day 4 with collagenase (1:10 dilution) for 10 minutes, vs control gels
# Method: as §1, with “S3 stiff” for “PEGSSDA”, “collagenase (1:10 dilution)” for “NAC 100 mmol”, “10” for “60”, “contol” for “control”
# [4] = system: U138 spheroids; assay: WNT pathway modulation in GBM U138 spheroids in hydrogel; assay type: cell-based
# Method: For the WNT experiments, spheroids of GBM U 138(ATCC® HTB-16™) cell line were formed by hanging drop method in a 96 well plate by using 10,000 cells per drop of 20 μl, which were cultured for 72 hours in high glucose DMEM before being harvested to be setup in HyStem HP-Hydrogels. The spheroids were placed sandwiched between two layers of gel of total volume of 250 μl. The spheroids were then given different media compositions. Normal high glucose media being the control, the spheroids behaviour in WNT pathway agonist BIO and WNT pathway antagonist XAV939 were studied.
# Experiments were conducted with single cell cancer spheroids with U138 cells. The WNT pathway was manipulated by adding either an agonist of the WNT pathway BIO or an antagonist of the WNT pathway XAV939 to the media.
# [5] = cited from earlier work
compound,measurement,setting,value
"CC(=O)N[C@@H](CS)C(=O)O [NAC, N-acetyl-L-cysteine]",detected urea production,[1],increased over time
same,detected albumin production,[1]; day 14,98 ng/mL
same,"proliferation of cells (MTS, day 7)",[2],Reduced proliferation
collagenase,"proliferation of cells (MTS, day 7)",[3],the same results were observed
Oc1nc(-c2ccc(C(F)(F)F)cc2)nc2c1CSCC2 [XAV939],cancer cells' phenotype (morphology),[4]; WNT pathway antagonist added to the media,more epithelial appearance than a mesenchymal appearance
O=C1Nc2cc(Br)ccc2/C1=C1/Nc2ccccc2/C1=N\O [BIO],proliferation and migration in the spheroids,[4]; WNT pathway agonist added to the media,shut down proliferation and migration
"Cn1nnc2c(C(N)=O)ncn2c1=O [TMZ, temozolomide]",concentrations in the cerebrospinal fluid (CSF) relative to plasma,[5]; CSF vs plasma,approximately 20%
same,peak CSF concentrations,[5]; CSF,26 ± 4 µM
